The target of series [1] is T1, human bombesin BB1 receptors (Homo sapiens, UniProt P28336).
T1 construct: expressed in transfected cells; host or cells: CHO cells
Nature of the series: Bombesin BB1 receptor binding assay, [125I][6-14]Bombesin, CHO cell membranes. The settings on record: membranes from CHO cells expressing human BB1. On the procedure:
The compounds of the present invention are a potent class of bombesin antagonists. Bombesin antagonism may be measured using the following binding assay using membranes from CHO cells expressing the human bombesin BB1 receptors.
Cells are maintained in Ham's F12 medium (Life Technologies Ltd, Cat No. 31765-027) supplemented with 10% FBS (Life Tech. Ltd., 10109-155) and 2 mM glutamine (or Glutamax in media). Cells are routinely passaged once weekly (split 1:5, approximate seeding density=1-4 million per […] flask), and fed every 2 days with fresh medium. Cells are frozen down (in Hams F12 containing 5% DMSO) 4-7 days after passaging and stored at −70° C. until required for use in binding experiments.
Frozen cells rapidly thawed and diluted with excess medium (each aliquot made up to 40 ml).
Cells harvested by centrifuging at 3000 g for 4 min at 21° C.
Cells resuspended in known volume of assay buffer, and cell count performed.
Membranes prepared by polytronning (setting 5, 10 secs). […]
(§1) For each assay plate, total (1% DMSO) and non-specific (1 μM, 1% DMSO), binding will be measured for the ligand on the receptor. Specific binding of the radioactive ligand to the receptor can thus be calculated to which specific binding of the radioactive ligand in the presence of a competing compound can be calculated and expressed as percentage inhibition of radioactive ligand binding.

A further series concerns the target BB2 (Homo sapiens, UniProt P30550). The experiment in a line: Bombesin BB2 receptor binding assay. On the procedure: Drug dilutions are performed using the Tecan Genesis/Miniprep handling stations. Assays are set up as follows
25 μl test compound/total/NSB
200 μl cell memb preparation
Assay additions using deep well Multidrop.
Non-specific binding is defined by 1 μM Bombesin 1% DMSO (final concentration).
1. Add membranes to start incubation. Vortex and incubate at 21° C. GRP assay=90 min; NMB assay=60 min.
2. Terminate reactions by rapid filtration onto GF\C filters or GF\C Unifilter plates presoaked in 0.2% PEI for >1 hour) using the appropriate Brandel cell harvester.
3. Wash with ice-cold HEPES HCl (50 mM, pH 7.4 at 21° C.).
Filter mats 6×1 ml total wash volume
Unifilter plates 2×1 ml total wash volume
4. Unifilters are dried at 50° C. for 60 minutes. Add 50 μl Microscint-0, Seal plates with Top-Seal A and count using TopCount NXT.
as §1

Each structure is given as a SMILES string.

For orientation: Ki means the equilibrium dissociation constant of an inhibitor or competing ligand from its target. Read a high Ki as lower affinity. As usually defined, the melting point is the temperature of the solid-liquid transition.

T1 sequence (P28336 whole entry): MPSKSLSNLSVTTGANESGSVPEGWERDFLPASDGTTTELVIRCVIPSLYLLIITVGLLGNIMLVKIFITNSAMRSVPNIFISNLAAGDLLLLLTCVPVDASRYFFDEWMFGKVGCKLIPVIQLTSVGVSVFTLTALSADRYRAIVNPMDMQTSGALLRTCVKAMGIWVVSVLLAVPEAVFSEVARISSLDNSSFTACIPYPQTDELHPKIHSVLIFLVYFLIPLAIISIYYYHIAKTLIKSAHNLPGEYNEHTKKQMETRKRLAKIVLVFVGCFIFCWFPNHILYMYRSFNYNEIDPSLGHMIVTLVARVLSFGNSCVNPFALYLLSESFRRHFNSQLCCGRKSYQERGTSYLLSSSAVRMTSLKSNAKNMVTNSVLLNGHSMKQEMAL
Chain of BB2 (P30550 whole entry): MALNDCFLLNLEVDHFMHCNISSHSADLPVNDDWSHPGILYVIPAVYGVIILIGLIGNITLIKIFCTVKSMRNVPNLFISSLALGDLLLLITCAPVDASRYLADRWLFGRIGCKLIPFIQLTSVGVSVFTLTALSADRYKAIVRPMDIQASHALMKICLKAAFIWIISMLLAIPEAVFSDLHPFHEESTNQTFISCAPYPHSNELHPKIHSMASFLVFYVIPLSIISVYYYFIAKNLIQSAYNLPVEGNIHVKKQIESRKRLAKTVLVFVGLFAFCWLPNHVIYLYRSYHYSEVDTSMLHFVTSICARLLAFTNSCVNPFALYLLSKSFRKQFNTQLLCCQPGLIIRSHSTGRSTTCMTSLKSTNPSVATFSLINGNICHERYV

For `O=C(NCc1cccc(Cl)c1Cl)N(Cc1ccc(O)cc1)CC1(c2ccccn2)CCCCC1` [Example 1, 3-(2,3-Dichloro-benzyl)-1-(4-hydroxy-benzyl)-1-(1-pyridin-2-yl-cyclohexylmethyl)-urea], the Ki is 0.082 µM in series [1] and 3.59 µM at BB2.

As to `CC(C)c1cccc(C(C)C)c1NC(=O)N(Cc1ccccc1)CC1(c2nnnn2C)CCCCC1` [Example 180, 1-Benzyl-3-(2,6-diisopropyl-phenyl)-1-[1-(1-methyl-1H-tetrazol-5-yl)-cyclohexylmethyl]-urea], the melting point fell in the range of 150 to 152 °C.

`CC(C)c1cccc(C(C)C)c1NC(=O)N(Cc1ccccc1)CC1(c2ncccn2)CCCCC1` [Example 181, 1-Benzyl-3-(2,6-diisopropyl-phenyl)-1-(1-pyrimidin-2-yl-cyclohexylmethyl)-urea] had a melting point of 112.5 to 113.5 °C.

The compound `Cc1cccc(CNC(=O)N(CC2CC2)CC2(c3ccccn3)CCCCC2)c1C` [Example 184, 1-Cyclopropylmethyl-3-(2,3-dimethyl-benzyl)-1-(1-pyridin-2-yl-cyclohexylmethyl)-urea] yielded a melting point of 102 to 103 °C.
